These results are taken from patent publication US9340577B2, “HLA binding motifs and peptides and their uses” (priority 1992, dated 2016).

What all share (test): biochemical
The target in assay [1] is DRB1*0301 (Homo sapiens, UniProt P01903+P01911, A100K/A102G/A103R/A169T/F55Y/I96L/K41T/L162R/M171V/P40S/Q125H/Q178H/Q39Y/R42S/S66N/T106N/T262R/W38E/Y61H). It counts as binding.
Assay [2] concerns the target DRB1*1501 (Homo sapiens, UniProt P01903+P01911). It counts as binding.
Assay [3] concerns the target DRB5*0101 (Homo sapiens, UniProt P01903+Q30154). To be noted: Binding affinity DRB5 *0101.
Assay [4] deals with DR4w4 (DRB1*0401) (Homo sapiens, UniProt P01903+P01911, A100K/A169T/F76Y/I96L/K127E/L162R/M171V/N62H/P40V/Q125Y/R42H/S133A/S149N/S66Y/V115G/V209L/W38E). It is filed as binding.
The target in assay [5] is DRB1*0405 (Homo sapiens, UniProt P01903+P01911, A100R/A169T/D86S/F76Y/I96L/K127E/L162R/M171V/N62H/P40V/Q125Y/R42H/S133A/S149N/S66Y/V115G/V209L/W38E). It counts as binding.
Assay [6] deals with DRB1*1101 (Homo sapiens, UniProt P01903+P01911, A100R/A169T/A87E/I96F/K41T/L162R/M171V/P40S/Q125H/Q178H/Q39Y/Q99D/R42S/S66Y/T262R/V115G/W38E). To be noted: Binding affinity DRB1 *1101.
Sequence of DRB1*1101 (P01903 26-254 limits assumed, other chains not shown): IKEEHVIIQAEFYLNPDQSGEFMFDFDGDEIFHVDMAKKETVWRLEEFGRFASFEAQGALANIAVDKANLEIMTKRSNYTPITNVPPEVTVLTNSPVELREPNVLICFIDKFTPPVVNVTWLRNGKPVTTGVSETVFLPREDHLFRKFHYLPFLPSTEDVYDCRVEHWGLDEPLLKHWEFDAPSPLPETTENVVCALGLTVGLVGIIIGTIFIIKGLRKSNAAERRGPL
In assay [7] the target is DR1 (DRB1*0101) (Homo sapiens, UniProt P01903+P01911, A100R/D57E/F55L/F60I/F76Y/I96L/L162R/M171V/P40L/Q125E/R42F/V115G/Y59C). It counts as binding.
The target in assay [8] is DRB1*0802 (Homo sapiens, UniProt P01903+P01911, A100R/A103L/A169T/F76Y/H45Y/I96F/K41T/L162R/M171V/P40S/Q125H/Q178H/Q39Y/Q99D/R218S/R42G/S66Y/V115G/W38E). It counts as binding.
Assay [9] concerns the target DRB4*0101 (Homo sapiens, UniProt P01903+P13762, G164S). It is filed as binding.
The target of assay [10] is DRB1*0901 (Homo sapiens, UniProt P01903+P01911, A100R/A103E/D57H/D86V/F55Y/F60I/F76Y/I96F/K127E/L162R/M171V/P40D/Q125H/Q99R/R33Q/R42F/S133A/S66N/T210M/V115G/W38K/Y107V/Y59G/Y89S). It counts as binding.
In assay [11] the target is DRB1*1201 (Homo sapiens, UniProt P01903+P01911, A100R/A169T/D57E/D86V/F55L/H45Y/K41T/L162R/M171V/P40S/Q125H/Q178H/Q39Y/Q99D/R42G/S66L/T262R/V114A/V67L/W38E/Y59H/Y61H/Y89S). It is filed as binding.
Assay [12] has as its target DR7 (DRB1*0701) (Homo sapiens, UniProt P01903+P01911, A100R/A102G/A103Q/D57E/D86V/E43K/F76Y/K127E/L162R/M171V/P40G/Q125H/Q99D/R33Q/R42Y/R54Q/S133A/S66F/T210M/V115G/Y107V/Y59L/Y89S). It is filed as binding.
In assay [13] the target is DRB1*1302 (Homo sapiens, UniProt P01903+P01911, A100E/A169T/K41T/L162R/M171V/P40S/Q125H/Q178H/Q39Y/Q99D/R42S/S66N/T262R/V115G/W38E/Y61H). It is filed as binding.
Sequence of DRB1*1302 (P01903 26-254 limits assumed, other chains not shown): as above

No end group written: not given here.

Sequence of DRB1*0301 (P01903 26-254 limits assumed, other chains not shown): as above

Compound `CC[C@H](C)[C@H](NC(=O)[C@@H](NC(=O)[C@@H]1CCCN1C(=O)[C@H](Cc1ccccc1)NC(=O)[C@H](Cc1ccccc1)NC(=O)[C@H](Cc1ccc(O)cc1)NC(=O)[C@H](CCC(N)=O)NC(=O)[C@H](Cc1c[nH]c2ccccc12)NC(=O)[C@H](CC(N)=O)NC(=O)CNC(=O)[C@@H](N)C(C)C)C(C)C)C(=O)N[C@@H](Cc1ccccc1)C(=O)N[C@@H](CO)C(=O)N[C@@H](CCCCN)C(=O)N[C@@H](C)C(=O)O` [Peptide 58.0114] had an IC50 in assay [1] of 4.1 nM.
On the same count and under the same terms, to `CC(C)C[C@H](NC(=O)[C@H](CCC(=O)O)NC(=O)[C@H](CCCCN)NC(=O)[C@H](C)N)C(=O)N[C@@H](CCCCN)C(=O)N[C@@H](Cc1ccccc1)C(=O)N[C@H](C(=O)N[C@H](C(=O)N[C@@H](CC(C)C)C(=O)N[C@H](C(=O)N[C@@H](Cc1ccccc1)C(=O)N[C@@H](CCCNC(=N)N)C(=O)N[C@@H](Cc1c[nH]cn1)C(=O)NCC(=O)N[C@@H](CC(=O)O)C(=O)O)C(C)C)[C@@H](C)O)C(C)C` [Peptide 68.0025] belongs over 20000 nM.
AFQVIELQMALETLS [Peptide 89.0181]: the IC50 in assay [2] was over 20000 nM; in [1], 33 nM; in assay [3] it was 1690 nM; in assay [4], 62 nM; in assay [5] it was 252 nM; in assay [6], 2140 nM. In addition, the IC50 in assay [7] was 3110 nM; in assay [8] it was 8160 nM; in assay [9], 349 nM.
For CTLVAGEVDYVGLYY [Peptide 90.0252], the IC50 in [2] is over 20000 nM; in assay [10], 981 nM; in [11], 3630 nM; in [3], over 20000 nM; in [4], 776 nM; in assay [12], over 20000 nM. For the same compound, the IC50 in assay [5] is 9020 nM; in assay [6], 6720 nM; in assay [13], 714 nM; in [7], over 20000 nM; in assay [8] it was over 20000 nM; in assay [9], 20 nM.
For the compound DLRVVQQLLMGALTV [Peptide 85.0092], the IC50 in assay [2] was 57 nM; in [1], over 20000 nM; in assay [6], 754 nM.
As to FIHFLQGAIISFVNS [Peptide 89.0088], the IC50 was 4390 nM in assay [1]; 867 nM in [10]; over 20000 nM in [3]; 2910 nM in assay [4]; 5600 nM in assay [6]; 1590 nM in assay [13]. The 50% inhibitory concentration (IC50) in [7] was 51 nM; in [8], over 20000 nM; in [9] it was 1680 nM.
For GGDWKQIVMFLRYQG [Peptide 89.0013], the IC50 is 6320 nM in assay [1]; 14 nM in [3]; 793 nM in assay [4]; 2460 nM in assay [12]; 198 nM in [6]; 899 nM in assay [13]. Also, the results for the IC50 in assay [7] and in assay [9] were 2040 nM and 7.9 nM, respectively.
On to GLYYWCDGEKIYFVK [Peptide 90.0226], for which the IC50 in assay [2] was 1300 nM; in [1], 432 nM; in [10], over 20000 nM; in [3] it was over 20000 nM; in [12], 4930 nM; in [6] it was 9140 nM. Further, the IC50 in assay [7] is 698 nM; in assay [8] it was over 20000 nM; in assay [9], over 20000 nM.
As to GQVIVCPASVSSNEV [Peptide 90.0016], the IC50 in assay [2] came out at 461 nM; in [1], 7740 nM; in [10], 197 nM; in [3], 8640 nM; in assay [4], 64 nM; in assay [12], 56 nM. Further, the IC50 in assay [6] amounted to 4820 nM; in assay [13], 94 nM; in assay [7], 24 nM; in [9], 197 nM.
In the case of HIEFTPTRTDTYACRV [Peptide 530.12], the values for the 50% inhibitory concentration (IC50) in assay [1] and in assay [12] were 30000 nM and over 12500 nM, respectively.
Regarding HWKLIRMECAIMYTA [Peptide 90.0021], the IC50 in assay [2] was 3840 nM; in [1] it was 82 nM; in [3], 3070 nM; in [12], 2640 nM; in assay [5], 84 nM; in [13] it was 54 nM. In addition, the results for the 50% inhibitory concentration (IC50) in [7], in [8] and in assay [9] were 28 nM, 14100 nM and 161 nM, respectively.
For the compound KWGVLILALLRYKCG [Peptide 89.0027], the IC50 was 3740 nM in assay [2]; over 20000 nM in assay [1]; 810 nM in assay [10]; 584 nM in [4]; over 20000 nM in assay [12]; 490 nM in [6]. In addition, half-maximal inhibition in [13] (IC50) was put at 571 nM.
Regarding LVEVTLGEVPAAESPD [Peptide F160.17], the IC50 was 4020 nM in [1] and 976 nM in assay [4].
With NGVLQGITSWGSEPC [Peptide 68.0081], in assay [1], the IC50 is over 20000 nM.
For the compound TAIFGVNPTIAEGFK [Peptide 89.0024], the IC50 is 11500 nM in [2]; 374 nM in assay [1]; 4480 nM in assay [10]; 17900 nM in assay [3]; 180 nM in assay [12]; 17 nM in assay [5]. For the same compound, the IC50 in assay [6] was 4040 nM; in assay [8], 11100 nM; in [9], 592 nM.
On to TPEWIERQTVLQHSF [Peptide 89.0048], for which the IC50 in assay [2] is 6060 nM; in [1], 34 nM; in assay [10], over 20000 nM; in assay [3] it was over 20000 nM; in [4], 451 nM; in assay [12] it was over 20000 nM. The IC50 in [13] was 5480 nM; in assay [7] it was 643 nM; in assay [9], 19 nM.
Take TTIYNNEEWTLRDTC [Peptide 90.0232]: the IC50 in assay [2] is 10200 nM; in [10] it was over 20000 nM; in [11], over 20000 nM; in assay [3] it was over 20000 nM; in [4], over 20000 nM; in assay [12], over 20000 nM. Also, the IC50 in [5] was over 20000 nM; in assay [6], 3430 nM; in [13], 1010 nM; in [7], 10600 nM; in [8], over 20000 nM; in [9] it was over 20000 nM.
As to TVEVQFDGDICNTMH [Peptide 90.0167], the IC50 is 5080 nM in [2]; 583 nM in [10]; over 20000 nM in assay [11]; over 20000 nM in [3]; 818 nM in [4]; 250 nM in [12]. Besides, the IC50 is over 20000 nM in assay [5]; over 20000 nM in assay [6]; 39 nM in [13]; 2300 nM in assay [7]; over 20000 nM in assay [8]; 235 nM in assay [9].
On to VMFLRYQGVEFMSFL [Peptide 89.0014], for which the IC50 in assay [2] stood at 30 nM; in assay [1], 18700 nM; in assay [10], 4020 nM; in assay [3], 701 nM; in assay [4], 927 nM; in assay [12] it was 2540 nM. Besides, the IC50 in assay [5] was determined as 629 nM; in [7], 605 nM; in [8] it was 13400 nM; in assay [9] it was 13 nM.
VSKLMSQLLNIPETH [Peptide 89.0101]: the IC50 in [2] is over 20000 nM; in assay [1], 922 nM; in assay [10], over 20000 nM; in assay [3], over 20000 nM; in [4], 10600 nM; in assay [12], over 20000 nM. Further, the IC50 was over 20000 nM in assay [6]; 9530 nM in assay [13]; over 20000 nM in [7]; over 20000 nM in [8]; over 20000 nM in assay [9].

As usually defined, the IC50 is the concentration needed to halve the response being measured.
